From PubChem BioAssay AID270 (DTP/NCI, 2004)
Where “and” joins values, the source holds several entries; their conditions need not be identical. Equal entries are not always repeated. Results filed as inconclusive are left out.

Test system: BDF1 mice, s.c. Lewis lung carcinoma, T/C %
Assay: NCI In Vivo Anticancer Drug Screen. Data for tumor model Lewis Lung Carcinoma (subcutaneous) in B6D2F1 (BDF1) mice
Outline: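 Readout: survival or tumor size, expressed as treated (T) over vehicle control (C). Transplantable tumor implanted in mice; compound given to the treated group.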

[1] = endpoint: median survival time, dose: 200.0 mg/kg/injection, schedule: Q01DX009 (ip), vehicle: Klucel (hydroxypropylcellulose) (HPC), higher = longer survival

SMILES: Cc1cn(C2OC(CO)C(O)C2O)c(=O)[nH]c1=O (stereo not drawn)
- T/C (endpoint: mean tumor weight, dose: 62.5 mg/kg/injection, schedule: Q01DX011 (ip), vehicle: saline, higher = larger tumour): 94 % of control
- T/C (endpoint: mean tumor weight, dose: 500.0 mg/kg/injection, schedule: Q01DX011 (ip), vehicle: saline, higher = larger tumour): 109 % of control

SMILES: O=NN(CCCl)C(=O)NC1CCC(NC(=O)N(CCCl)N=O)CC1 (stereo not drawn)
- T/C (endpoint: median survival time, dose: 30.0 mg/kg/injection, schedule: Q04DX004 (ip), vehicle: saline with Tween-80, higher = longer survival): 123 % of control
- T/C (endpoint: median survival time, dose: 45.0 mg/kg/injection, schedule: Q01DX001 (ip), vehicle: saline with Tween-80, higher = longer survival): 109 % of control
- T/C (endpoint: median survival time, dose: 45.0 mg/kg/injection, schedule: Q04DX004 (ip), vehicle: saline with Tween-80, higher = longer survival): 156 % of control
- T/C (endpoint: median survival time, dose: 75.0 mg/kg/injection, schedule: Q04DX004 (ip), vehicle: saline with Tween-80, higher = longer survival): 104 % of control and 122 % of control
- T/C (endpoint: median survival time, dose: 84.0 mg/kg/injection, schedule: Q01DX001 (ip), vehicle: saline with Tween-80, higher = longer survival): 174 % of control
- T/C (endpoint: median survival time, dose: 90.0 mg/kg/injection, schedule: Q07DX002 (ip), vehicle: saline with Tween-80, higher = longer survival): 117 % of control and 222 % of control
- T/C (endpoint: median survival time, dose: 120.0 mg/kg/injection, schedule: Q07DX002 (ip), vehicle: saline with Tween-80, higher = longer survival): 116 % of control
- T/C (endpoint: median survival time, dose: 150.0 mg/kg/injection, schedule: Q07DX002 (ip), vehicle: saline with Tween-80, higher = longer survival): 105 % of control
- T/C (endpoint: median survival time, dose: 171.0 mg/kg/injection, schedule: Q01DX001 (ip), vehicle: saline with Tween-80, higher = longer survival): 179 % of control
- T/C (endpoint: median survival time, dose: 255.0 mg/kg/injection, schedule: Q01DX001 (ip), vehicle: saline with Tween-80, higher = longer survival): 112 % of control
- T/C (endpoint: median tumor weight (est.), dose: 30.0 mg/kg/injection, schedule: Q01DX001 (ip), vehicle: saline with Tween-80, higher = larger tumour): 88 % of control
- T/C (endpoint: median tumor weight (est.), dose: 45.0 mg/kg/injection, schedule: Q01DX001 (ip), vehicle: saline with Tween-80, higher = larger tumour): 121 % of control
- T/C (endpoint: median tumor weight (est.), dose: 67.0 mg/kg/injection, schedule: Q01DX001 (ip), vehicle: saline with Tween-80, higher = larger tumour): 64 % of control
- T/C (endpoint: median tumor weight (est.), dose: 101.0 mg/kg/injection, schedule: Q01DX001 (ip), vehicle: saline with Tween-80, higher = larger tumour): 83 % of control
- T/C (endpoint: median tumor weight (est.), dose: 152.0 mg/kg/injection, schedule: Q01DX001 (ip), vehicle: saline with Tween-80, higher = larger tumour): 23 % of control

SMILES: COc1cc2c[n+](C)c3c4cc5c(cc4ccc3c2cc1OC)OCO5 (tested in a mixture with another compound)
- T/C (endpoint: median survival time, dose: 5.0 mg/kg/injection, schedule: Q01DX009 (ip), vehicle: saline, higher = longer survival): 92 % of control
- T/C (endpoint: median survival time, dose: 10.0 mg/kg/injection, schedule: Q01DX009 (ip), vehicle: saline, higher = longer survival): 96 % of control
- T/C (endpoint: median survival time, dose: 20.0 mg/kg/injection, schedule: Q01DX009 (ip), vehicle: saline, higher = longer survival): 86 % of control

SMILES: COc1cc2nccc3c4ccccc4n(c1=O)c23
- T/C (endpoint: median survival time, dose: 50.0 mg/kg/injection, schedule: Q01DX009 (ip), vehicle: Klucel (hydroxypropylcellulose) (HPC), higher = longer survival): 114 % of control
- T/C (endpoint: median survival time, dose: 100.0 mg/kg/injection, schedule: Q01DX009 (ip), vehicle: Klucel (hydroxypropylcellulose) (HPC), higher = longer survival): 110 % of control
- T/C [1]: 120 % of control

SMILES: CN(/N=N/c1nc[nH]c1C(N)=O)C(C)(C)C
- T/C [1]: 109 % of control
- T/C (endpoint: median survival time, dose: 400.0 mg/kg/injection, schedule: Q01DX009 (ip), vehicle: Klucel (hydroxypropylcellulose) (HPC), higher = longer survival): 90 % of control

SMILES: O=C(Nc1ccc(C2=NCCCN2)cc1)c1ccc(C(=O)Nc2ccc(C3=NCCCN3)cc2)cc1
- T/C (endpoint: mean tumor weight, dose: 0.25 mg/kg/injection, schedule: Q01DX011 (ip), vehicle: other, higher = larger tumour): 73 % of control
- T/C (endpoint: mean tumor weight, dose: 0.5 mg/kg/injection, schedule: Q01DX011 (ip), vehicle: other, higher = larger tumour): 98 % of control
- T/C (endpoint: mean tumor weight, dose: 1.0 mg/kg/injection, schedule: Q01DX011 (ip), vehicle: other, higher = larger tumour): 85 % of control
- T/C (endpoint: mean tumor weight, dose: 2.0 mg/kg/injection, schedule: Q01DX011 (ip), vehicle: other, higher = larger tumour): 73 % of control
- T/C (endpoint: mean tumor weight, dose: 4.0 mg/kg/injection, schedule: Q01DX011 (ip), vehicle: other, higher = larger tumour): 7 % of control

SMILES: Cc1ccc(NC(=O)N(CCCl)N=O)cc1NC(=O)N(CCCl)N=O
- T/C (endpoint: median survival time, dose: 3.12 mg/kg/injection, schedule: Q01DX009 (ip), vehicle: other, higher = longer survival): 93 % of control
- T/C (endpoint: median survival time, dose: 6.25 mg/kg/injection, schedule: Q01DX009 (ip), vehicle: other, higher = longer survival): 87 % of control

SMILES: [I][Hg][CH2]C1OCCOC1[CH2][Hg][I] (stereo not drawn)
- T/C (endpoint: mean tumor weight, dose: 18.75 mg/kg/injection, schedule: Q01DX011 (ip), vehicle: saline, higher = larger tumour): 79 % of control
- T/C (endpoint: mean tumor weight, dose: 37.5 mg/kg/injection, schedule: Q01DX011 (ip), vehicle: saline, higher = larger tumour): 64 % of control
- T/C (endpoint: mean tumor weight, dose: 75.0 mg/kg/injection, schedule: Q01DX011 (ip), vehicle: saline, higher = larger tumour): 54 % of control

SMILES: Nc1cc(Cl)cc(Cl)c1
- T/C (endpoint: mean tumor weight, dose: 29.0 mg/kg/injection, schedule: Q01DX011 (ip), vehicle: other, higher = larger tumour): 90 % of control
- T/C (endpoint: mean tumor weight, dose: 44.0 mg/kg/injection, schedule: Q01DX011 (ip), vehicle: other, higher = larger tumour): 65 % of control
- T/C (endpoint: mean tumor weight, dose: 66.0 mg/kg/injection, schedule: Q01DX011 (ip), vehicle: other, higher = larger tumour): 98 % of control
